Consider 33 molecules from ChEMBL document CHEMBL1124295, “Synthesis and oral antiallergic activity of carboxylic acids derived from imidazo[2,1-c][1,4]benzoxazines, imidazo[1,2-a]quinolines, imidazo[1,2-a]quinoxalines, imidazo[1,2-a]quinoxalinones, pyrrolo[1,2-a]quinoxalinones, pyrrolo[2,3-a]quinoxalinones, and imidazo[2,1-b]benzothiazoles” (1988).

Active and inactive are the calls of the source. The rule behind the calls is not given here.

As usually defined, the ED50 is the dose that gives a 50% effect, or the effect in half of the subjects. As usually defined, the inhibition in vivo is the relative decrease from the control value, in per cent. Lower therefore signals a weak effect.

Experiment [1] relates to Rattus norvegicus. Nature of the experiment: Inhibition of the IgE-mediated passive cutaneous anaphylaxis (PCA) reaction in rat after intravenous administration; Inactive at 1 and 10 mg/kg. It counts as functional, organism-based. More on the design: dose 10 mg/kg.
Experiment [2] relates to Rattus norvegicus. As to the kind of experiment: Inhibition of the IgE-mediated passive cutaneous anaphylaxis (PCA) reaction in rat after intravenous administration; Range 0.12-0.35. It counts as functional.
The test system of experiment [3] is Rattus norvegicus. As to the kind of experiment: Inhibition of the IgE-mediated passive cutaneous anaphylaxis (PCA) reaction in rat after oral administration; Inactive at 1 and 10 mg/kg. It counts as functional, organism-based. More on the design: dose 10 mg/kg.
Experiment [4] concerns Rattus norvegicus. Nature of the experiment: Inhibition of the IgE-mediated passive cutaneous anaphylaxis (PCA) reaction in rat after intravenous administration; Range 0.02-0.38. It counts as functional.
Experiment [5] relates to Rattus norvegicus. Nature of the experiment: Inhibition of the IgE-mediated passive cutaneous anaphylaxis (PCA) reaction in rat after intravenous administration; Range 0.20-0.35. It counts as functional.
The subject of experiment [6] is Rattus norvegicus. Nature of the experiment: Inhibition of the IgE-mediated passive cutaneous anaphylaxis (PCA) reaction in rat after intravenous administration; Range 0.18-0.41. It counts as functional.
The subject of experiment [7] is Rattus norvegicus. Nature of the experiment: Inhibition of the IgE-mediated passive cutaneous anaphylaxis (PCA) reaction in rat after oral administration; Inactive(50% inhibition at 10 mg/kg). It counts as functional.
Experiment [8] deals with Rattus norvegicus. Nature of the experiment: Inhibition of the IgE-mediated passive cutaneous anaphylaxis (PCA) reaction in rat after intravenous administration; Range 0.13-0.26. It counts as functional.
Experiment [9] has as its system Rattus norvegicus. Nature of the experiment: Inhibition of the IgE-mediated passive cutaneous anaphylaxis (PCA) reaction in rat after intravenous administration; Range 1.14-3.89. It counts as functional.
For experiment [10], the system named is Rattus norvegicus. As to the kind of experiment: Inhibition of the IgE-mediated passive cutaneous anaphylaxis (PCA) reaction in rat after oral administration; Inactive at 10 mg/kg. Details: dose 10 mg/kg. It counts as functional, organism-based.
Experiment [11] concerns Rattus norvegicus. Nature of the experiment: Inhibition of the IgE-mediated passive cutaneous anaphylaxis (PCA) reaction in rat after oral administration; Range 1.22-2.52. It counts as functional.
The subject of experiment [12] is Rattus norvegicus. As to the kind of experiment: Inhibition of the IgE-mediated passive cutaneous anaphylaxis (PCA) reaction in rat after intravenous administration; […]. It counts as functional.
Experiment [13] relates to Rattus norvegicus. Nature of the experiment: Inhibition of the IgE-mediated passive cutaneous anaphylaxis (PCA) reaction in rat after oral administration; Range 4.65-18.7. It counts as functional.
For experiment [14], the system named is Rattus norvegicus. Nature of the experiment: Inhibition of the IgE-mediated passive cutaneous anaphylaxis (PCA) reaction in rat after intravenous administration; Range 0.24-1.05. It counts as functional.
Experiment [15] concerns Rattus norvegicus. As to the kind of experiment: Inhibition of the IgE-mediated passive cutaneous anaphylaxis (PCA) reaction in rat after oral administration; Range 0.4-2.34. It counts as functional.
For experiment [16], the system named is Rattus norvegicus. As to the kind of experiment: Inhibition of the IgE-mediated passive cutaneous anaphylaxis (PCA) reaction in rat after intravenous administration; NA means inactive at 1 and 10 mg/Kg. It counts as functional, organism-based.
The test system of experiment [17] is Rattus norvegicus. As to the kind of experiment: Inhibition of the IgE-mediated passive cutaneous anaphylaxis (PCA) reaction in rat after intravenous administration; Range 0.04-0.154. It counts as functional.
Experiment [18] has as its system Rattus norvegicus. Nature of the experiment: Inhibition of the IgE-mediated passive cutaneous anaphylaxis (PCA) reaction in rat after intravenous administration; Range 0.021-0.033. It counts as functional.
Experiment [19] deals with Rattus norvegicus. Nature of the experiment: Inhibition of the IgE-mediated passive cutaneous anaphylaxis (PCA) reaction in rat after oral administration; Range 0.07-0.4. It counts as functional.
The subject of experiment [20] is Rattus norvegicus. Nature of the experiment: Inhibition of the IgE-mediated passive cutaneous anaphylaxis (PCA) reaction in rat after intravenous administration; Range 2.74-6.94. It counts as functional.
In experiment [21] the test system is Rattus norvegicus. Nature of the experiment: Inhibition of the IgE-mediated passive cutaneous anaphylaxis (PCA) reaction in rat after intravenous administration; Range 0.22-0.38. It counts as functional.
For experiment [22], the system named is Rattus norvegicus. As to the kind of experiment: Inhibition of the IgE-mediated passive cutaneous anaphylaxis (PCA) reaction in rat after intravenous administration; Range 0.058-0.15. It counts as functional.
The test system of experiment [23] is Rattus norvegicus. As to the kind of experiment: Inhibition of the IgE-mediated passive cutaneous anaphylaxis (PCA) reaction in rat after oral administration; NA means inactive at 1 and 10 mg/Kg. It counts as functional, organism-based.
Experiment [24] has as its system Rattus norvegicus. Nature of the experiment: Inhibition of the IgE-mediated passive cutaneous anaphylaxis (PCA) reaction in rat after intravenous administration; Range 1.61-7. It counts as functional.
Experiment [25] has as its system Rattus norvegicus. As to the kind of experiment: Inhibition of the IgE-mediated passive cutaneous anaphylaxis (PCA) reaction in rat after intravenous administration; Range 0.25-0.41. It counts as functional.
Experiment [26] relates to Rattus norvegicus. As to the kind of experiment: Inhibition of the IgE-mediated passive cutaneous anaphylaxis (PCA) reaction in rat after oral administration; Range 0.29-0.4. It counts as functional.
Experiment [27] concerns Rattus norvegicus. Nature of the experiment: Inhibition of the IgE-mediated passive cutaneous anaphylaxis (PCA) reaction in rat after intravenous administration; Range 0.24-0.39. It counts as functional.
The subject of experiment [28] is Rattus norvegicus. Nature of the experiment: Inhibition of the IgE-mediated passive cutaneous anaphylaxis (PCA) reaction in rat after intravenous administration; Range 0.19-0.59. It counts as functional.

For the molecule `CCc1nc(C(=O)O)c2c(O)nc3ccccc3n12`, the ED50 entry in the experiment with Rattus norvegicus [1] is “inactive”.
Molecule `O=C(O)c1cn2c(cnc3cc(Cl)c(Cl)cc32)n1` returned an ED50 with Rattus norvegicus [2] of 0.2 mg/kg. In the experiment on Rattus norvegicus [3], the ED50 entry is “inactive”.
In the experiment on Rattus norvegicus [4], `OCc1cn2c(cc(Cl)c3ccc(Cl)cc32)n1` had an ED50 of 0.16 mg/kg.
As to `O=C(O)c1cn2c(ccc3cc([N+](=O)[O-])ccc32)n1`, the 50% effect level in the experiment on Rattus norvegicus [5] (ED50) was put at a dose of 0.28 mg/kg.
Consider `COc1ccc2ccc3nc(C(=O)Nc4nn[nH]n4)cn3c2c1`, for which the ED50 result with Rattus norvegicus [1] is “inactive”.
Molecule `C[S+]([O-])c1cc2nc(C(=O)O)cn2c2ccccc12` (stereo not drawn) returned a 50% effective dose (ED50) in the experiment with Rattus norvegicus [6] of 0.29 mg/kg.
The molecule `COc1ccc2c(OC(C)C)cc3nc(C(=O)O)cn3c2c1` returned an inhibition in vivo at 10 mg/kg in the experiment with Rattus norvegicus [7] of 50%.
For the molecule `CCOC(=O)c1cn2ccccc2n1`, the ED50 result in the experiment on Rattus norvegicus [1] was “inactive”.
`CCn1c(=O)c2cc(C(=O)Nc3nn[nH]n3)cn2c2ccccc21` returned an ED50 with Rattus norvegicus [8] of 0.18 mg/kg.
For `Cc1c(C(=O)O)nc2ccc3ccc(Cl)cc3n12`, the ED50 with Rattus norvegicus [9] was determined as 1.99 mg/kg.
On to `CCOC(=O)c1cn2c(n1)c(=O)n(Cc1ccccc1)c1ccccc12`, for which the ED50 result with Rattus norvegicus [10] is “inactive”.
In the case of `O=C(O)c1cc2c(=O)n(C3CCCC3)c3ccccc3n2c1`, the ED50 in the experiment on Rattus norvegicus [11] amounted to 1.96 mg/kg; in the experiment on Rattus norvegicus [12], 0.037 mg/kg.
Take `CCOC(=O)c1cn2c(cc(Cl)c3ccc(OC)cc32)n1`: the ED50 in the experiment on Rattus norvegicus [13] came to 8 mg/kg.
On to `O=C(Nc1nn[nH]n1)c1cn2c(cnc3ccccc32)n1`, for which, in the experiment with Rattus norvegicus [3], the ED50 entry is “inactive”. This molecule also yielded an ED50 with Rattus norvegicus [14] of 0.45 mg/kg.
On to `Cl.Cl.NCc1cn2c(ccc3ccccc32)n1`, for which, in the experiment on Rattus norvegicus [15], the ED50 was 0.976 mg/kg.
With `O=C(O)Cc1cn2c(n1)COc1ccccc1-2`, in the experiment with Rattus norvegicus [16], the ED50 entry was “inactive”.
In the case of `O=C(O)c1nc2n(c1C(=O)N1CCOCC1)-c1ccccc1OC2`, in the experiment on Rattus norvegicus [16], the ED50 result was “inactive”.
The same measure, in the same setting: in the case of `COC(=O)c1nc2n(c1C(=O)O)-c1ccccc1OC2` it was “inactive”.
As for `O=C(O)c1cn2c(ccc3ccc(C(F)(F)F)cc32)n1`, the ED50 in the experiment on Rattus norvegicus [17] came out at 0.07 mg/kg.
For the molecule `COc1ccc2c(Cl)cc3nc(C(=O)O)cn3c2c1`, the ED50 in the experiment on Rattus norvegicus [18] amounted to 0.027 mg/kg; in the experiment on Rattus norvegicus [19], 0.34 mg/kg.
In the experiment with Rattus norvegicus [20], `O=C(O)c1nc2ccc3ccccc3n2c1Br` returned an ED50 of 4.19 mg/kg.
With `Cc1cc2sc3nc(C(=O)O)cn3c2cc1C`, the ED50 in the experiment with Rattus norvegicus [21] amounted to 0.3 mg/kg.
With `CSc1ccc2ccc3nc(C(=O)O)cn3c2c1`, in the experiment with Rattus norvegicus [22], the ED50 turned out to be 0.095 mg/kg.
For the molecule `CCOC(=O)c1c(C(=O)OC)nc2n1-c1ccccc1OC2`, the ED50 result with Rattus norvegicus [16] is “inactive”.
In the experiment on Rattus norvegicus [22], `C[S+](=N)([O-])c1ccc2ccc3nc(C(=O)O)cn3c2c1` (stereo not drawn) yielded a median effective dose (ED50) of 0.095 mg/kg.
Take `O=C(O)c1nc2n(c1CO)-c1ccccc1OC2`: the ED50 entry with Rattus norvegicus [23] is “inactive”.
Consider `O=C(O)c1nc2n(c1C(=O)O)-c1ccccc1OC2`, for which the ED50 entry in the experiment on Rattus norvegicus [16] was “inactive”.
In turn, `CCC1Oc2ccccc2-n2cc(C(=O)O)nc21` (stereo not drawn) yielded an ED50 with Rattus norvegicus [24] of 2.6 mg/kg.
On to `O=C(Cc1cn2c(n1)COc1ccccc1-2)Nc1nn[nH]n1`, for which the ED50 result with Rattus norvegicus [16] is “inactive”.
`CCn1c(=O)c2nc(C(=O)Nc3nn[nH]n3)cn2c2ccccc21`: it took a dose of 0.32 mg/kg to reach the 50% effect level with Rattus norvegicus [25] (ED50).
On to `COc1ccc2c(OC)cc3nc(C(=O)O)cn3c2c1`, for which the ED50 result in the experiment with Rattus norvegicus [3] is “inactive”.
For the molecule `O=C(O)c1cn2c(ccc3ccccc32)n1`, the ED50 worked out at 0.34 mg/kg in the experiment on Rattus norvegicus [26] and 0.3 mg/kg in the experiment on Rattus norvegicus [27].
In the experiment with Rattus norvegicus [28], `O=C(O)c1cn2c(n1)sc1ccccc12` displayed an ED50 of 0.33 mg/kg.
